Measurements reported in patent publication US7524964B2, “Tetrahydrothiopyrano pyrazole cannabinoid modulators” (Janssen Pharmaceutica NV, priority 2005, dated 2009).
pIC50: −log10 of the molar value. Where two headings read alike, the source gives them in different places.

How the values were obtained:
human CB-2 receptor = target: T1, human CB-2 receptor (Homo sapiens, UniProt P34972); test: Binding assay, cannabinoid CB2 receptor ([3H]-CP-55,940 displacement); details: read-out: CB2 binding percent inhibition; for inhibition at 1 µM: test concentration 1 μM (superscript b)
T1 construct: expressed in transfected cells; host or cells: SK-N-MC cells, pcDNA3 CB-2 (human), semi-purified membranes
How it was run: (§1)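 Membranes from SK-N-MC cells stably expressing human CB-1 or CB-2 were incubated 90 min at 30° C with 0.2 nM [3H]-CP-55,940 in pH 7.5 Tris buffer with fatty-acid-free BSA; 10 uM WIN 55,212 defined non-specific binding. Filter-bound counts gave IC50 by linear regression, or percent inhibition at 0.2, 1 or 10 μM.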

human CB1 receptor = human CB1 receptor (Homo sapiens, UniProt P21554); test: Binding assay, cannabinoid CB1 receptor ([3H]-CP-55,940 displacement); set-up: expressed in transfected cells; host or cells: SK-N-MC cells, pcDNA3 CB-1 (human), semi-purified membranes; details: for inhibition at 0.2 µM: test concentration 0.2 μM (superscript a); for inhibition at 1 µM: test concentration 1 μM (superscript b)
How it was run: as §1

[1] = test concentration 0.2 μM (superscript a)
[2] = read-out: CB1 binding percent inhibition

T1 sequence (P34972 whole entry): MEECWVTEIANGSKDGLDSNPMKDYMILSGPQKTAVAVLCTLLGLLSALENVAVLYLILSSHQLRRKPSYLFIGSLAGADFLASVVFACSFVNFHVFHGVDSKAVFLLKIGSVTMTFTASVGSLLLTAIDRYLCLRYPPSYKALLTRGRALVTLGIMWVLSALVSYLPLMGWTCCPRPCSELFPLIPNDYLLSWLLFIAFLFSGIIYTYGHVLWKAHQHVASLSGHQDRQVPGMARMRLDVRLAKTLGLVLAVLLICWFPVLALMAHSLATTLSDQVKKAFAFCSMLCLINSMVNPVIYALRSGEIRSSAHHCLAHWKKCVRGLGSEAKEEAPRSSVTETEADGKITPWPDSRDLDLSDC
human CB1 receptor, sequence (P21554 whole entry): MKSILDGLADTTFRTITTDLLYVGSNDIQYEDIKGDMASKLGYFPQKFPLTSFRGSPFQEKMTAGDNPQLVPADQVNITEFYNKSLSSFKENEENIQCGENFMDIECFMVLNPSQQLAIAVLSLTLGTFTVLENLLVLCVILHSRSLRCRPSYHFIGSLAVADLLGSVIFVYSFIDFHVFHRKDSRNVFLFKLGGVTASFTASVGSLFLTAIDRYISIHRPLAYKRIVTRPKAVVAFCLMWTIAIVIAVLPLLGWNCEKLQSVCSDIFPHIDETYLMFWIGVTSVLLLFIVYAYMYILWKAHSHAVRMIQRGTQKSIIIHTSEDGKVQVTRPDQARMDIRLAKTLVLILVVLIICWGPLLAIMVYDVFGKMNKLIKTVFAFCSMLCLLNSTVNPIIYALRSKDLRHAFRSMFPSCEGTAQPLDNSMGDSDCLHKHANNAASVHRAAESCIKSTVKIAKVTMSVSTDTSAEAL

Compound | pIC50 (human CB1 receptor) | inhibition at 0.2 µM (human CB-2 receptor; [1]) [%] | inhibition at 0.2 µM (human CB1 receptor; [2]) [%] | other results
C[C@@H](NC(=O)c1nn(-c2ccc(Cl)cc2Cl)c2c1CSC/C2=C\c1ccc(F)cc1)c1ccccn1 [Cpd 127, (7Z)-1-(2,4-dichloro-phenyl)-7-(4-fluoro-benzylidene)-1,4,6,7-tetrahydro-thiopyrano[4,3-c]pyrazole-3-carboxylic acid [(1R)-1-(pyridin-2-yl)-ethyl]-amide] | 8.15 | – | – | inhibition at 0.2 µM (human CB-2 receptor): 19%
O=C(NN1CCCCC1)c1nn(-c2ccc(Cl)cc2)c2c1C[S+]([O-])C/C2=C\c1ccc(F)cc1 (stereo not shown) [Cpd 96, (7Z)-1-(4-chloro-phenyl)-7-(4-fluoro-benzylidene)-5-oxo-4,5,6,7-tetrahydro-1H-5λ^4-thiopyrano[4,3-c]pyrazole-3-carboxylic acid piperidin-1-ylamide] | – | 9 | 43 | –
C[C@H](NC(=O)/C=C/c1nn(Cc2ccccc2)c2c1C[S+]([O-])CC2)c1ccccc1 (stereo partly drawn) [Cpd 34, (2E)-3-(1-benzyl-5-oxo-4,5,6,7-tetrahydro-1H-5λ^4-thiopyrano[4,3-c]pyrazol-3-yl)-N-[(1S)-1-phenyl-ethyl]-acrylamide] | – | – | – | inhibition at 10 µM (human CB-2 receptor; test concentration 10 μM (superscript c)): 21%; inhibition at 10 µM (human CB1 receptor; test concentration 10 μM (superscript c), read-out: CB1 binding percent inhibition): 11%
O=C(N[C@@H]1CCCC[C@H]1O)c1nn(-c2ccc(Cl)cc2Cl)c2c1CSC/C2=C\c1ccc(F)cc1 [Cpd 61, (7Z)-1-(2,4-dichloro-phenyl)-7-(4-fluoro-benzylidene)-1,4,6,7-tetrahydro-thiopyrano[4,3-c]pyrazole-3-carboxylic acid [(1R,2R)-2-hydroxy-cyclohexyl]-amide] | – | 31 | 60 | –
C[C@H](NS(=O)(=O)/C=C/c1nn(-c2ccc(F)cc2F)c2c1CSCC2Cc1cccc(F)c1)c1ccccc1 (stereo partly drawn) [Cpd 38, (E)-2-[1-(2,4-difluoro-phenyl)-7-(3-fluoro-benzyl)-1,4,6,7-tetrahydro-thiopyrano[4,3-c]pyrazol-3-yl]-ethenesulfonic acid [(1S)-1-phenyl-ethyl]-amide] | – | 15 | 28 | –
O=C(NNc1ccc(Cl)cc1Cl)c1nn(-c2ccc(Cl)cc2Cl)c2c1CSC/C2=C\c1ccc(F)cc1 [Cpd 52, (7Z)-1-(2,4-dichloro-phenyl)-7-(4-fluoro-benzylidene)-1,4,6,7-tetrahydro-thiopyrano[4,3-c]pyrazole-3-carboxylic acid N′-(2,4-dichloro-phenyl)-hydrazide] | – | 28 | 66 | –
O=C(NN1CC2CCCC2C1)c1nn(-c2ccc(F)cc2F)c2c1CS(=O)(=O)C/C2=C\c1ccc(F)cc1 (stereo not shown) [Cpd 105, (7Z)-1-(2,4-difluoro-phenyl)-7-(4-fluoro-benzylidene)-5,5-dioxo-4,5,6,7-tetrahydro-1H-5λ^6-thiopyrano[4,3-c]pyrazole-3-carboxylic acid (hexahydro-cyclopenta[c]pyrrol-2-yl)-amide] | – | 11 | 50 | –
C[C@@H](NS(=O)(=O)/C=C/c1n[nH]c2c1CSCC2Cc1cccc(F)c1)C1CCCCC1 (stereo partly drawn) [Cpd 48, (E)-2-[7-(3-fluoro-benzyl)-1,4,6,7-tetrahydro-thiopyrano[4,3-c]pyrazol-3-yl]-ethenesulfonic acid [(1R)-1-cyclohexyl-ethyl]-amide] | – | 11 | 15 | –
CC1CCCC(C)N1NC(=O)c1nn(-c2ccc(Cl)cc2Cl)c2c1CSC/C2=C\c1ccc(F)cc1 (stereo not shown) [Cpd 111, (7Z)-1-(2,4-dichloro-phenyl)-7-(4-fluoro-benzylidene)-1,4,6,7-tetrahydro-thiopyrano[4,3-c]pyrazole-3-carboxylic acid (2,6-dimethyl-piperidin-1-yl)-amide] | 7.85 | 16 | – | –
O=C(NN1CCCCC1)c1nn(-c2ccc(Cl)cc2Cl)c2c1CSC/C2=C\c1ccc(Br)cc1 [Cpd 130, (7Z)-(4-Bromo-benzylidene)-1-(2,4-dichloro-phenyl)-1,4,6,7-tetrahydro-thiopyrano[4,3-c]pyrazole-3-carboxylic acid piperidin-1-ylamide] | 7.68 | 34 | – | –
O=C(N[C@@H]1CCC[C@H]1O)c1nn(-c2ccc(Cl)cc2Cl)c2c1CS(=O)(=O)C/C2=C\c1ccc(F)cc1 [Cpd 67, (7Z)-1-(2,4-dichloro-phenyl)-7-(4-fluoro-benzylidene)-5,5-dioxo-4,5,6,7-tetrahydro-1H-5λ^6-thiopyrano[4,3-c]pyrazole-3-carboxylic acid [(1R,2R)-2-hydroxy-cyclopentyl]-amide] | – | 15 | 46 | –
C[C@@H](NC(=O)c1nn(-c2ccc(Cl)cc2Cl)c2c1CS(=O)(=O)C/C2=C\c1ccc(Cl)o1)c1ccccc1 [Cpd 117, (7Z)-7-(5-chloro-furan-2-ylmethylene)-1-(2,4-dichloro-phenyl)-5,5-dioxo-4,5,6,7-tetrahydro-1H-5λ^6-thiopyrano[4,3-c]pyrazole-3-carboxylic acid [(1R)-1-phenyl-ethyl]-amide] | 8.05 | – | – | inhibition at 0.2 µM (human CB-2 receptor): 18%
C[C@@H](NS(=O)(=O)/C=C/c1nn(Cc2ccccc2)c2c1CSCC2)C1CCCCC1 [Cpd 11, (E)-2-(1-benzyl-1,4,6,7-tetrahydro-thiopyrano[4,3-c]pyrazol-3-yl)-ethenesulfonic acid [(1R)-1-cyclohexyl-ethyl]-amide] | – | – | – | inhibition at 1 µM (human CB-2 receptor): 39%; inhibition at 1 µM (human CB1 receptor; [2]): 29%
C[C@H](NS(=O)(=O)/C=C/c1nn(-c2ccc(F)cc2F)c2c1CS(=O)(=O)CC2Cc1cccc(F)c1)c1ccccc1 (stereo partly drawn) [Cpd 42, (E)-2-[1-(2,4-difluoro-phenyl)-7-(3-fluoro-benzyl)-5,5-dioxo-4,5,6,7-tetrahydro-1H-5λ^6-thiopyrano[4,3-c]pyrazol-3-yl]-ethenesulfonic acid [(1S)-1-phenyl-ethyl]-amide] | – | 20 | 31 | –
O=C(NNc1ccc(Cl)cc1Cl)c1nn(-c2ccc(Cl)cc2Cl)c2c1C[S+]([O-])C/C2=C\c1ccc(F)cc1 (stereo not shown) [Cpd 77, (7Z)-1-(2,4-dichloro-phenyl)-7-(4-fluoro-benzylidene)-5-oxo-4,5,6,7-tetrahydro-1H-5λ^4-thiopyrano[4,3-c]pyrazole-3-carboxylic acid N′-(2,4-dichloro-phenyl)-hydrazide] | – | 9 | 55 | –
C[C@H](NC(=O)c1c2c(nn1-c1ccc(Cl)cc1Cl)/C(=C/c1ccc(F)cc1)CSC2)c1ccccc1 [Cpd 91, (7Z)-2-(2,4-dichloro-phenyl)-7-(4-fluoro-benzylidene)-2,4,6,7-tetrahydro-thiopyrano[4,3-c]pyrazole-3-carboxylic acid [(1S)-1-phenyl-ethyl]-amide] | – | 14 | 38 | –
COC[C@H]1CCCN1NC(=O)c1nn(-c2ccc(Cl)cc2Cl)c2c1CSC/C2=C\c1ccc(F)cc1 [Cpd 122, (7Z)-1-(2,4-dichloro-phenyl)-7-(4-fluoro-benzylidene)-1,4,6,7-tetrahydro-thiopyrano[4,3-c]pyrazole-3-carboxylic acid [(2R)-2-(methoxymethyl)-pyrrolidin-1-yl]-amide] | 8.22 | 18 | – | –
C[C@@H](NC(=O)c1nn(-c2ccc(Cl)cc2)c2c1CS(=O)(=O)C/C2=C\c1ccc(F)cc1)c1ccccc1 [Cpd 95, (7Z)-1-(4-chloro-phenyl)-7-(4-fluoro-benzylidene)-5,5-dioxo-4,5,6,7-tetrahydro-1H-5λ^6-thiopyrano[4,3-c]pyrazole-3-carboxylic acid [(1R)-1-phenyl-ethyl]-amide] | 8.05 | – | – | inhibition at 0.2 µM (human CB-2 receptor): 15%
C[C@H](NS(=O)(=O)/C=C/c1nn(-c2ccc(Cl)cc2Cl)c2c1CSCC2Cc1cccc(Cl)c1)c1ccccc1 (stereo partly drawn) [Cpd 46, (E)-2-[7-(3-chloro-benzyl)-1-(2,4-dichloro-phenyl)-1,4,6,7-tetrahydro-thiopyrano[4,3-c]pyrazol-3-yl]-ethenesulfonic acid [(1S)-1-phenyl-ethyl]-amide] | – | 18 | 43 | –
O=C(NN1CCCCCC1)c1nn(-c2ccc(Cl)cc2Cl)c2c1CS(=O)(=O)C/C2=C\c1ccc(Cl)o1 [Cpd 120, (7Z)-7-(5-chloro-furan-2-ylmethylene)-1-(2,4-dichloro-phenyl)-5,5-dioxo-4,5,6,7-tetrahydro-1H-5λ^6-thiopyrano[4,3-c]pyrazole-3-carboxylic acid azepan-1-ylamide] | 7.48 | 12 | – | –
C[C@@H](NS(=O)(=O)/C=C/c1c2c(nn1Cc1ccccc1)CCSC2)C1CCCCC1 [Cpd 6, (E)-2-(2-benzyl-2,4,6,7-tetrahydro-thiopyrano[4,3-c]pyrazol-3-yl)-ethenesulfonic acid [(1R)-1-cyclohexyl-ethyl]-amide] | – | – | – | inhibition at 1 µM (human CB-2 receptor): 0%; inhibition at 1 µM (human CB1 receptor; [2]): 16%
C[C@@H](NC(=O)c1c2c(nn1-c1ccc(Cl)cc1Cl)/C(=C/c1ccc(F)cc1)CS(=O)(=O)C2)c1ccccc1 [Cpd 82, (7Z)-2-(2,4-dichloro-phenyl)-7-(4-fluoro-benzylidene)-5,5-dioxo-4,5,6,7-tetrahydro-2H-5λ^6-thiopyrano[4,3-c]pyrazole-3-carboxylic acid [(1R)-1-phenyl-ethyl]-amide] | 7.32 | 19 | – | –
O=C(c1nn(-c2ccc(Cl)cc2Cl)c2c1CSC/C2=C\c1ccc(F)cc1)N1CCCC1 [Cpd 57, (7Z)-[1-(2,4-dichloro-phenyl)-7-(4-fluoro-benzylidene)-1,4,6,7-tetrahydro-thiopyrano[4,3-c]pyrazol-3-yl]-pyrrolidin-1-yl-methanone] | – | 21 | 56 | –
